Data from US20150238507A1, “BENZODIAZEPINES FOR TREATING SMALL CELL LUNG CANCER” (GlaxoSmithKline LLC, priority 2012, published 2015).
Where two headings read alike, the source gives them in different places.

Legend:
[1] = system: NCI-H526 cell line xenograft; assay: SCLC subcutaneous mouse xenograft model, efficacy and pharmacodynamics; format: in vivo; details: 25 mg/kg QD
[2] = system: small cell lung cancer lines; assay: 6 day proliferation (cell growth) assay, panel of 38 small cell lung cancer lines; format: cell-based; details: 6 day proliferation assay; for IC50: 144 h

IC50 ([2]; median of 38 small cell lung cancer lines, read-out: gIC50 (median over the panel)): 1.46 µM | IC50 ([2]; panel of 38 small cell lung cancer lines, read-out: gIC50 (range over the panel)): 0.109 to 29.3 µM
Compound: CCNC(=O)C[C@@H]1N=C(c2ccc(Cl)cc2)c2cc(OC)ccc2-n2c(C)nnc21 [2-[(4S)-6-(4-chlorophenyl)-1-methyl-8-(methyloxy)-4H-[1,2,4]triazolo[4,3-a][1,4]benzodiazepin-4-yl]-N-ethylacetamide]
reduction of tumour growth ([1]; NCI-H526 subcutaneous mouse xenograft): 70% | p21 protein expression and caspase activation in tumour ([1]; NCI-H526 xenograft, antibody-based immunochemistry assay): induce p21 protein expression and caspase activation | number of lines showing gIC50<10000 nM ([2]; of the 38 small cell lung cancer lines): 33
